In EP4545550B1, “INSECT NEUROPEPTIDES” (Solasta Bio Limited, priority 2023, dated 2025):

System: Spodoptera frugiperda
Experiment: Lepidoptera artificial diet assay
Format: in vivo
Settings: unformulated peptide, final concentration 1x10^-4 M in artificial diet, one L1 larva per cell, n=10, after 168 hours; compared to the insecticide DDT and negative control vehicle
From the text: Frontier Lepidoptera artificial diet was made up by preparing agar at 1% and then mixing it with artificial diet powder. Peptide solution was aliquoted in 10 cells and diet poured straight onto it. The final concentration of the peptide was 1x10^-4 M, and each peptide was aliquoted in 10 cells. Once the diet solidified and cooled down, one L1 larvae was infested in each cell. The trays were sealed with heat and let larva were allowed to develop for 168 hrs. Finally, pupation and mortality were scored for. Lepidoptera artificial diet assays were performed with SB-P-80, and compared to a negative control vehicle and the insecticide dichlorodiphenyltrichloroethane (DDT).

H-NADEDQQQSVDFTPRL-NH2 [SB-P-80, [Hy]-NADEDQQQSVDFTPRL-[NH2]]
activity (pupation and mortality scored): much higher activity
